According to patent EP0010299A1, “Pharmaceutical composition useful for the treatment of hypercholesteremia” (Merck & Co., Inc., priority 1978, dated 1980):
“And” between values parts separate entries of the source, which are not always exact repeats. Equal values may be shown once.

What was measured:
serum sterol levels = details: Bensch et al. 1978, cited from earlier work
plasma cholesterol = experiment: Combination of compound (II) with cholestyramine in dogs, plasma cholesterol; format: in vivo, Male beagles
Description: Male beagles, ranging in weight from 7 to 14 kg. (average 11 kg.), were fed a semi-synthetic diet six weeks prior to the start of the experiment and serum cholesterol levels determined colorimetrically each week in order to obtain base-line values for each dog. At the start of the treatment, animals were divided into three treatment groups. Group A (4 dogs) received 25 mg./kg./day of compound (II) mixed in the diet. Group B (4 dogs) received 12 g./dog/day of cholestyramine mixed' in the diet. Group C (5 dogs) was the untreated control. Treatment was for four weeks, and plasma cholesterol was determined two times per week. After four weeks a combination of compound (II) and cholestyramine was given to dogs in Groups A and B mixed in the diet at 25 mg./kg. and 12 g./dog/day respectively for an additional four weeks. Cholesterol levels were detorminod two times per week during this period.

serum cholesterol = details: acutely treated rat; Endo et al. 1976; cited from earlier work
HMG-CoA reductase [1] = details: fed rats three hours following the administration; Bensch et al. 1978; cited from earlier work
HMG-CoA reductase [2] = molecular target: T1, HMG-CoA reductase (Rattus norvegicus, UniProt P51639); details: reductase enzyme; no unit printed (molar concentration); read-out: ED50 in the inhibition test; cited from earlier work
T1 sequence (P51639 1-887): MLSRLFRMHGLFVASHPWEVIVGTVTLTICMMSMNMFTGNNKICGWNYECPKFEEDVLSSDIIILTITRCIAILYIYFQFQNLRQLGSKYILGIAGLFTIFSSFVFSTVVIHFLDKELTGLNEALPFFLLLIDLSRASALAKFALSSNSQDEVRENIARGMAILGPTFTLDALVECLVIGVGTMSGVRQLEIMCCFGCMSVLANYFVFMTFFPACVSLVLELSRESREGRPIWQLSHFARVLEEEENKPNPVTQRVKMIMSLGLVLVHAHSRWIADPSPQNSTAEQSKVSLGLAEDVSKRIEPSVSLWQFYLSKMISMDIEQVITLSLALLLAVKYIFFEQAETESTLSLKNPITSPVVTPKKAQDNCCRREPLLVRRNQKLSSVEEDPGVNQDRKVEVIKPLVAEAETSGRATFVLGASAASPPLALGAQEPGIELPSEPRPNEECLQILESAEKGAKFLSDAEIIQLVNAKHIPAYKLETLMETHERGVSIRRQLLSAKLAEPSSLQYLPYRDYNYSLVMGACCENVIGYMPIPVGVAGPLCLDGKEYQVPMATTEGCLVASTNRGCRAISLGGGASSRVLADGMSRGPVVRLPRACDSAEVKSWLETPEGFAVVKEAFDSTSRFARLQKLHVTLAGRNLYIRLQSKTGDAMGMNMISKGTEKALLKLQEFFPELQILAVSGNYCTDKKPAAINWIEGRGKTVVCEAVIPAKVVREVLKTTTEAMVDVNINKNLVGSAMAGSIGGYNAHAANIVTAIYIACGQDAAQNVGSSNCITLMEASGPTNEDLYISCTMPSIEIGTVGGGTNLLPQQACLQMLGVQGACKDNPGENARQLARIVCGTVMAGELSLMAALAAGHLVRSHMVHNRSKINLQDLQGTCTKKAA

[3] = Group A average (4 dogs), compound (II) 25 mg./kg./day mixed in the diet, 4 weeks
[4] = Group A, individual dogs, compound (II) 25 mg./kg./day mixed in the diet, 4 weeks

SMILES: CCC(C)C(=O)OC1CCC=C2C=CC(C)C(CCC3CC(O)CC(=O)O3)C21 (centres unmarked) [compound (II), 1,2,3,7,8,8a-hexahydro-7-methyl-8-[2-(3,4,5,6-tetra-hydro-4-hydroxy-6-oxo-2H-pyran-2-yl]ethyl)-1-naphthyl 2-methyl butanoate]
- liver or liver microsomal cholesterol concentration (serum sterol levels): no change
- effect on serum sterol levels (serum sterol levels; compared with fed or fasted controls): no effect
- reduction in plasma cholesterol level plateauing by four weeks (plasma cholesterol; Fig. 1, Group A, 25 mg./kg./day of compound (II)): 36 % of control
- PLASMA CHOLESTEROL, 4 Weeks, % change from Start, average (plasma cholesterol; [3]): -35.6%
- PLASMA CHOLESTEROL, 4 Weeks, average (plasma cholesterol; [3]): 82.5 mg/dL
- PLASMA CHOLESTEROL, 4 Weeks (plasma cholesterol; [4]): 76 mg./dl and 70 mg./dl and 92 mg./dl (2×)
- PLASMA CHOLESTEROL, 4 Weeks, % change from Start (plasma cholesterol; [4]): -36.7% and -30.7% and -40.4% and -34.3%
- decrease of plasma cholesterol, average (plasma cholesterol; four weeks single agent in the diet: compound (II) 25 mg./kg. (Group A), cholestyramine 12 g./dog/day (Group B)): 35.6%
- serum cholesterol levels (serum cholesterol): reduced
- HMG-CoA reductase (HMG-CoA reductase [1]): marked increase
- IC50 (HMG-CoA reductase [2]): ~10 nM
